PMC6452685, “Lysyl-tRNA synthetase as a drug target in malaria and cryptosporidiosis” (Proceedings of the National Academy of Sciences of the …, 2019)

Key:
CYP2D6 = molecular target: T1, CYP2D6 (Homo sapiens, UniProt P10635); test: Fluorescence-based CYP inhibition, CYP2D6; assay type: in vitro ADME
T1 construct: purchased Cypex, Dundee, UK; host or cells: bacterial membranes (bactosomes)
Method: 4.7 F lu or e s ce nce-based CYP I nhibition usin g recombinantly expressed CYP b actosomes Fl uorogeni c C YP i nhi bi t i on s t udi es w ere c ondu ct ed at 37 °C i n 96-well, flat-bot t om, cl ear p ol y s t y rene pl at es. I ncubat i on mi xt ures cont ai ni ng Eas y C YP bact os omes (1000 pmol /ml , 10 mg /ml C y pex TM, Dundee, UK), fl uorogeni c substrate (Cypex TM) and 50 mM potas s i um phosphat e buffer (p H 7. 4) w er e prepared at t he fol l ow i ng fi nal concent rat i ons : C YP1A2, 5 pmol /ml + 35 µ M et hox y res orufi n (ER) ; CYP2C9, 10 pm ol/ml + 30 µM 7-methoxy-4-(tri fl uo romethy l )-coumari n (MFC ); C YP 2C 19, 5 pm ol /ml + 25 µM 3-cy ano-7-eth oxycoumarin (CEC); C YP 2D 6, 10 pmol /ml + 6 µM 7-meth oxy-4-(ami nomethy l )- coumari n (MAMC ); C YP 3A4, 10 pmol /ml + 1 µM diethoxyfluorescein (DEF) and 10 pmol /ml + 15 µM 7-benz y l ox y qui nol i ne (BQ ). […] 0125 ( 1A2 and 2C 9 onl y ) o r 0. 025 mg /ml (al l ot her i s oforms ). […] Positive control inhibitor, miconazole, was prepared as a 500 µM s olution in DMSO and similarly diluted.
For eac h i sofo rm, 2 20 µl of i ncubati on mi x was added to each wel l of a 96-well, flat-bot t om, cl ear pol y s t y rene pl at e. Al i quot s (5 µl) of each compound 5 conce ntrati on was then mi x ed wi th 220 µl of the incubation mix and pre-incubated at 37 °C for 5 min (final test compound concentration range: […]

[1] = Hepatocyte stability, mouse; assay type: in vitro ADME
Method: SUPPLEMENTARY INFORMATION where V (ml/mg protein) is the incubation volume/mg protein added (0.5) and microsomal protein yield is taken as being 52.5 mg protein per g liver. Verapami l (0. 5 µ M ) w as us ed as a pos i t i v e cont rol to confirm ac ceptable assay performance. Ex peri ments were performed us i ng a s i ngl e ti me-cours e […]
4.5 He pat ocy t e s t abilit y
Cryopreserved hepatocytes were used to take non-CYP mediated Phase I and Phase II enzymes into […]
than those determined using li v e r mi crosomes or other subcellular liver fractions and could be mo re predi ct i v e of a met abol i c rat e det ermi ned in vivo.
Cryopreserved mouse (batch MC539) and huma n (batch HU E50H) hepatocytes were supplied by ThermoFi sher Sci enti fi c, Pai sl ey, UK and Xenotech, LLC, respectively. Cryopreserved hepatocytes were rapidly thawed in a pre-heat ed w at er bat h at 37 °C before ad di ng to 50 ml of pre-warmed CHRM medi a (ThermoFi sher Sci enti fi c, Paisley, UK) and mi xed gentl y. […] […] 5 mi l li on v i abl e cel l s /ml i n s uppl emented W ME. Onl y s us pens i ons whi ch ac hi ev ed >80% pos t-thaw viability were us ed i n ex peri ment s . […]
DMSO and 0.25 million cells/ml. […]

T1 sequence (P10635 whole entry): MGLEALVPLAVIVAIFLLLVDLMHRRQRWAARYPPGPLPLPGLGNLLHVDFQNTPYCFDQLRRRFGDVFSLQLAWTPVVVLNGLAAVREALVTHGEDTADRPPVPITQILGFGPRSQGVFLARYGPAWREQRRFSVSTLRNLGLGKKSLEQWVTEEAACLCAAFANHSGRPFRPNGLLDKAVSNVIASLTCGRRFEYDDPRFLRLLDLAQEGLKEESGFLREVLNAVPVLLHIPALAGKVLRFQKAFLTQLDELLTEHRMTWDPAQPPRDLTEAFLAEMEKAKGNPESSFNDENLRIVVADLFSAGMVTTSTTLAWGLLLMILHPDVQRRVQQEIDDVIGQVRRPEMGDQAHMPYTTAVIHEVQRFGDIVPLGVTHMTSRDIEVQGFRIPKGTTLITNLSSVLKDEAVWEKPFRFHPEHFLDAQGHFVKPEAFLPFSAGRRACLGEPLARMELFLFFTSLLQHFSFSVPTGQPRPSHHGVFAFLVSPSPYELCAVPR

## O=C(NCC1(O)CCC(F)(F)CC1)c1cc(=O)c2cc(F)ccc2o1 [Compound 5]
CYP2D6
  IC50: > 10 µM
[1]
  Hepatocyte stability CLint: 0.5 (mouse), <0.5 (human) mL⋅min^−1⋅g^−1
